Tests used:
Format in all cases: tissue-based
[1] = molecular target: Adrenergic receptor alpha-2 (Rattus norvegicus) (UniProt P22086+P19328+P22909); experiment: Selectivity ratio of Alpha-2 adrenergic receptor by Alpha-1 adrenergic receptor in rat cerebral cortex
[2] = molecular target: T1, 5-hydroxytryptamine receptor 1A (Rattus norvegicus, UniProt P19327); experiment: Binding affinity towards 5-hydroxytryptamine 1A receptor in rat cerebral cortex using [3H]-8-OH-DPAT
T1 sequence (P19327 whole entry): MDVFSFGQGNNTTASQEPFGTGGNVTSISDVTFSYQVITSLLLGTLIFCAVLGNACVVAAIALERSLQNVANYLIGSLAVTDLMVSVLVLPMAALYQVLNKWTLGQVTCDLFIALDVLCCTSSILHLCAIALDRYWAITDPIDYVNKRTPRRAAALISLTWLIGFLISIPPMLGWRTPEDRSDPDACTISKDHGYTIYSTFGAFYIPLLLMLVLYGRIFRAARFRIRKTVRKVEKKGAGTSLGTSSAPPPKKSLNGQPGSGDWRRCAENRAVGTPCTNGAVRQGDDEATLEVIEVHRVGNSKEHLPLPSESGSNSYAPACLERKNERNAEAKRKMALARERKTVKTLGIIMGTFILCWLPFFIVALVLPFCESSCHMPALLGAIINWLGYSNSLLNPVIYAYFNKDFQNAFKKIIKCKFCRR

[3] = molecular target: T2, Adrenergic receptor alpha-2 (Rattus norvegicus, UniProt P22086+P19328+P22909); experiment: Binding affinity towards Alpha-2 adrenergic receptor in rat cerebral cortex using [3H]rauwolscine
T2 sequence (P22086 whole entry): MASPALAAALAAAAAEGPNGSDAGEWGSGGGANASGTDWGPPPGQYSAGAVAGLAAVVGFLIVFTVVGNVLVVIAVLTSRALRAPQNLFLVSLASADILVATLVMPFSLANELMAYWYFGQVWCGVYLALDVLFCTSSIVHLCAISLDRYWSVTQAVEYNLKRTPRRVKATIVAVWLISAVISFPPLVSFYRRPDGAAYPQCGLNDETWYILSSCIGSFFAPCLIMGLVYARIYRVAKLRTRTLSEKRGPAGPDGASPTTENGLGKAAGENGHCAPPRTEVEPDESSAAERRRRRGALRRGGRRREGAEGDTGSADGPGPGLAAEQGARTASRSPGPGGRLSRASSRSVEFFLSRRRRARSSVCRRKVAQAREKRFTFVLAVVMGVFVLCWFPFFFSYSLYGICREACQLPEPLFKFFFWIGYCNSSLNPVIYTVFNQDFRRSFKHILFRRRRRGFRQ
T2 sequence (P19328 whole entry): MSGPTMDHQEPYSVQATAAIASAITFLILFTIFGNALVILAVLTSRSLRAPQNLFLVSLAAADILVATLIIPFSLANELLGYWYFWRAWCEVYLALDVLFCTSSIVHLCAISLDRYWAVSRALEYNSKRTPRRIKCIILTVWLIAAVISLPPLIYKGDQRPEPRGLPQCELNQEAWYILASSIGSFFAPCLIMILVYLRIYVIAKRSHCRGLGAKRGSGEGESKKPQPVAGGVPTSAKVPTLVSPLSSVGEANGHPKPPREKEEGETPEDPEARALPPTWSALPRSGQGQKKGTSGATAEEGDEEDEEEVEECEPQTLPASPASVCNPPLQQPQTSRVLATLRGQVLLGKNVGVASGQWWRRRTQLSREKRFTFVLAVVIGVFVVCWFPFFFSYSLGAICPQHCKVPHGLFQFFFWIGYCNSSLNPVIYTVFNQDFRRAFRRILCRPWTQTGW
T2 sequence (P22909 whole entry): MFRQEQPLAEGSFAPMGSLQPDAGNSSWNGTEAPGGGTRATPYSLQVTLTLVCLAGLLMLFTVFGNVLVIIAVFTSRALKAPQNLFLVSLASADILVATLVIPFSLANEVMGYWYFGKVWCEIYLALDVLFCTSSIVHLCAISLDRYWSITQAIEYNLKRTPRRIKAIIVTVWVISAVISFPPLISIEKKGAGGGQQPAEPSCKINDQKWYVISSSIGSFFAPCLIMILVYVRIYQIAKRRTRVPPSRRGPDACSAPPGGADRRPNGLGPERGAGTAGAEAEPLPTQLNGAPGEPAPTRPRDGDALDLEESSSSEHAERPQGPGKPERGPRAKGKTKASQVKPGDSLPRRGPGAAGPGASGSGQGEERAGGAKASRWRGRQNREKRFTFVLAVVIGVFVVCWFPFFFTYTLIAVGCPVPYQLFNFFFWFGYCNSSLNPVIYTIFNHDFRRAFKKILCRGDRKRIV

[4] = molecular target: T3, Adrenergic receptor alpha-1 (Rattus norvegicus, UniProt P15823+P23944+P43140); experiment: Binding affinity towards Alpha-1 adrenergic receptor in rat cerebral cortex using [3H]prazosin
T3 sequence (P15823 whole entry): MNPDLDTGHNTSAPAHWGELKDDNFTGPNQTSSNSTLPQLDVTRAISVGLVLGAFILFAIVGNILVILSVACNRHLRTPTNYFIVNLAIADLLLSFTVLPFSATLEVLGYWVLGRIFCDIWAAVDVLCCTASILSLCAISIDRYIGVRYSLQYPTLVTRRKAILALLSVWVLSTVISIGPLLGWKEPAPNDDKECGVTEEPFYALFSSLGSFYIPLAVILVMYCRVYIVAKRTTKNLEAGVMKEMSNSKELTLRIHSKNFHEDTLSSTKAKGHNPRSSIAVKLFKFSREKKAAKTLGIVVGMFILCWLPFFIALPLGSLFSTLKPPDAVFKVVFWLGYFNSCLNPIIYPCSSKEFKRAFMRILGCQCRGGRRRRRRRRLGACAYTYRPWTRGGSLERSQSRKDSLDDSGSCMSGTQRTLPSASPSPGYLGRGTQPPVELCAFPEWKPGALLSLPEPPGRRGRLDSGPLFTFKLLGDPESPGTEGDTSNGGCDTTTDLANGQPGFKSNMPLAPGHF
T3 sequence (P23944 whole entry): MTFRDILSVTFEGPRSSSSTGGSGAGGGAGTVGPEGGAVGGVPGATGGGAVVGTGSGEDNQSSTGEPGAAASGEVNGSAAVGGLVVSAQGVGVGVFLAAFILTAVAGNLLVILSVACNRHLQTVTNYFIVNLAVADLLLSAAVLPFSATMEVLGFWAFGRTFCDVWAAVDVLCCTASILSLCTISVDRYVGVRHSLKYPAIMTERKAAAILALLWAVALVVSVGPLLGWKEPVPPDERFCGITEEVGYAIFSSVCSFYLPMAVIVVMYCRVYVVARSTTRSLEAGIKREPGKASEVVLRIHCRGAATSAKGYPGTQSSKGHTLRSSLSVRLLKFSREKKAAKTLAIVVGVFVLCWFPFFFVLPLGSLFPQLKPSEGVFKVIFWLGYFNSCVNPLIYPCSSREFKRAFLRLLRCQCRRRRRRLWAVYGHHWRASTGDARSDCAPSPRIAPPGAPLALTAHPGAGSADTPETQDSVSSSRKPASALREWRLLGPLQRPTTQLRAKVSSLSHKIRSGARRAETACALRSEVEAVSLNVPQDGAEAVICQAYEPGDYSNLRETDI
T3 sequence (P43140 whole entry): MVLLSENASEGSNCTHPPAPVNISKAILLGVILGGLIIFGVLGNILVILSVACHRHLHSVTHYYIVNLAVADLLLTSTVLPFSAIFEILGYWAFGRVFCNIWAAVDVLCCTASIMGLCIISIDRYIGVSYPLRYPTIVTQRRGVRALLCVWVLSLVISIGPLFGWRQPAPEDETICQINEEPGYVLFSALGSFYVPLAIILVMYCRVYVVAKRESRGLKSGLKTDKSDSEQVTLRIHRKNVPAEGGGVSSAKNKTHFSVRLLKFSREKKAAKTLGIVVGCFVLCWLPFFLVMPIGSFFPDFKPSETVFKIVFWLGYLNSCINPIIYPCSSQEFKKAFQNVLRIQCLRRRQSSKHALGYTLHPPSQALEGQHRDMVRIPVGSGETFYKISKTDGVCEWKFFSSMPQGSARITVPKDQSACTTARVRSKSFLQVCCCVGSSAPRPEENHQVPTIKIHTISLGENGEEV

[5] = molecular target: T1, 5-hydroxytryptamine receptor 1A; experiment: Binding affinity towards 5-hydroxytryptamine 1A receptor in rat cerebral cortex

COc1ccccc1OCCN1CCN(c2cnn(CCCCCCCN3CCN(c4ccccc4OC)CC3)c(=O)c2Cl)CC1
Selectivity ratio [1]: 3

CC(C)Oc1ccccc1N1CCN(CCCCCCCn2ncc(N3CCN(C(=O)c4ccco4)CC3)c(Cl)c2=O)CC1
Ki [2]: 0.8 nM | Ki [3]: 0.56 nM | Ki [4]: 0.052 nM | Selectivity ratio [1]: 11

CCOc1ccccc1OCCN1CCN(c2cnn(CCCCCCCN3CCN(c4ccccc4OC)CC3)c(=O)c2Cl)CC1
Ki [2]: 0.16 nM | Ki [3]: 1.6 nM | Ki [4]: 0.55 nM | Selectivity ratio [1]: 3

CCOc1ccccc1N1CCN(CCCCCCCn2ncc(N3CCN(CCOc4ccccc4OC)CC3)c(Cl)c2=O)CC1
Ki [3]: 8.2 nM | Ki [4]: 0.58 nM | Selectivity ratio [1]: 14

CCOc1ccccc1N1CCN(CCCCCCCn2ncc(N3CCN(C(=O)c4ccco4)CC3)c(Cl)c2=O)CC1
Ki [3]: 4 nM | Ki [4]: 0.5 nM | Selectivity ratio [1]: 8

CCOc1ccccc1OCCN1CCN(c2cnn(CCCCCCCN3CCN(c4ccccc4OC(C)C)CC3)c(=O)c2Cl)CC1
Ki [3]: 3.2 nM | Ki [4]: 0.26 nM | Selectivity ratio [1]: 12 | Ki [5]: 0.82 nM

COc1ccccc1N1CCN(CCCCCCCn2ncc(N3CCN(C(=O)c4ccco4)CC3)c(Cl)c2=O)CC1
Selectivity ratio [1]: 274

CCOc1ccccc1OCCN1CCN(c2cnn(CCCCCCCN3CCN(c4ccccc4OCC)CC3)c(=O)c2Cl)CC1
Ki [2]: 0.22 nM | Ki [3]: 2 nM | Ki [4]: 0.43 nM | Selectivity ratio [1]: 5

— ChEMBL document CHEMBL1136256, “alpha1-Adrenoceptor antagonists. 5. Pyridazinone-arylpiperazines. Probing the influence on affinity and selectivity of both ortho-alkoxy groups at the arylpiperazine moiety and cyclic substituents at the pyridazinone nucleus” (Bioorg Med Chem Lett, 2003)
